Here are results for one compound from patent publication EP0908457B1, “3-(1,2-benzisothiazol- and isoxazol-5-Y1)-2,4(1H,3H)-pyrimidinedione or thione and 3-(1,2-benzisothiazol- and isoxazol-5-y1)-4(3H)-pyrimidinone or thione herbicidal agents” (BASF AKTIENGESELLSCHAFT, priority 1997, dated 1999).

For series [1], the system named is Cyperus serotinus, Rottb. As to the kind of experiment: Preemergence weed control under flooded paddy conditions, CYPSE (Flatsedge). Particulars: preemergence, rated three to four weeks after treatment. It is filed as in vivo.
For series [2], the system named is Monochoria vaginalis, Presl. As to the kind of experiment: Preemergence weed control under flooded paddy conditions, MOOVA (Monochoria). It is filed as in vivo. Particulars: preemergence, flooded paddy, rated three to four weeks after treatment.
Series [3] has as its system Oryza sativa, (L.) Tebonnet. Kind of series: Rice tolerance to post-transplant applications under flooded paddy conditions (Example 187), ORYSAT (Rice, Tebonnet). Particulars: rated three to four weeks after treatment.
The next series concerns Cyperus iria. Kind of series: Preemergence weed control under flooded paddy conditions, CYPIR (Rice Flatsedge). Particulars: preemergence, flooded paddy, rated three to four weeks after treatment. It counts as in vivo.
Series [4] concerns Echinochloa oryzoides (Ard.) Fritsch. As to the kind of experiment: Preemergence weed control under flooded paddy conditions, ECHORC (Watergrass (Calif.)). It is filed as in vivo. Particulars: preemergence, flooded paddy, rated three to four weeks after treatment.
Another series has as its system Sagittaria pygmaea, L. As to the kind of experiment: Preemergence weed control under flooded paddy conditions, SAGPY (Arrowhead (Pygmaea)). It counts as in vivo. Particulars: preemergence, flooded paddy, rated three to four weeks after treatment.

SMILES strings stand for the structures.

Take `Cn1c(C(F)(F)F)cc(=O)n(-c2ccc3snc(C(C)(C)C#N)c3c2)c1=O` [Example 256, 1,2-Benzisothiazole-3-acetonitrile, 5-[3,6-dihydro-3-methyl-2,6-dioxo-4-(trifluoromethyl)-1(2H)-pyrimidinyl)-alpha,alpha-dimethyl-]: the “CYPSE herbicidal effect rating” value was determined as 0.0 in series [1] (Rate 0.0320 kg/ha), 2.0 in series [1] (Rate 0.0620 kg/ha), 6.0 in series [1] (Rate 0.1250 kg/ha) and 9.0 in series [1] (Rate 0.2500 kg/ha). Moreover, the “MOOVA herbicidal effect rating” value amounted to 8.0 in series [2] (Rate 0.0320 kg/ha), 9.0 in series [2] (Rate 0.0620 kg/ha), 9.0 in series [2] (Rate 0.1250 kg/ha) and 9.0 in series [2] (Rate 0.2500 kg/ha). Further, the “ORYSAT herbicidal effect rating” value in series [3] (Rate 0.0320 kg/ha) is 6.0; in series [3] (Rate 0.0620 kg/ha) it was 8.0; in series [3] (Rate 0.1250 kg/ha), 8.0; in series [3] (Rate 0.2500 kg/ha), 9.0. The “CYPIR herbicidal effect rating” value in the series on Cyperus iria (Rate 0.0320 kg/ha) was determined as 8.0; in the series on Cyperus iria (Rate 0.0620 kg/ha), 9.0; in the series on Cyperus iria (Rate 0.1250 kg/ha) it was 9.0; in the series on Cyperus iria (Rate 0.2500 kg/ha), 9.0. In addition, the “ECHORC herbicidal effect rating” value in series [4] (Rate 0.0320 kg/ha) stood at 1.0; in series [4] (Rate 0.0620 kg/ha), 3.0; in series [4] (Rate 0.1250 kg/ha), 7.0; in series [4] (Rate 0.2500 kg/ha), 9.0. Also, the “SAGPY herbicidal effect rating” value in the series with Sagittaria pygmaea, L. (Rate 0.0320 kg/ha) came to 0.0; in the series with Sagittaria pygmaea, L. (Rate 0.0620 kg/ha), 0.0; with Sagittaria pygmaea, L. (Rate 0.1250 kg/ha), 4.0; with Sagittaria pygmaea, L. (Rate 0.2500 kg/ha), 8.0.
